Converted amounts (≈) assume the structure as drawn. “And” between values parts separate entries of the source, which are not always exact repeats. Identical values can stand only once.
Tests used:
[1] = test system: Mycobacterium tuberculosis; experiment: Antitubercular activity against Mycobacterium tuberculosis H37Rv after 4 weeks; type: functional; conditions: 672 h
[2] = Cytotoxicity against mouse MBMDMphi cells after 48 hrs by MTS assay; type: cell-based
[3] = Cytotoxicity against african green monkey Vero cells after 24 hrs by MTS assay; type: cell-based; conditions: chlorocebus sabaeus
[4] = test system: Mycobacterium tuberculosis; experiment: Ratio of ethambutol MIC to compound MIC for Mycobacterium tuberculosis H37Rv after 4 weeks; type: functional

SMILES | MIC [1] | CC50 at 48 h [2] [µM] | CC50 at 24 h [3] [µM] | Ratio [4]
CC(C)(C)n1nnnc1C(c1ccccc1)N1CCN(C2=NC(=O)/C(=C/c3ccccc3)S2)CC1 (centres undefined) | > 12.5 µg/mL | – | – | –
CC(C)(C)n1nnnc1C(c1ccccc1F)N1CCN(C2=NC(=O)/C(=C/c3ccccc3)S2)CC1 (centres undefined) | 6.25 µg/mL and 12.3 µM | > 100 | > 100 | –
CC(C)(C)n1nnnc1C(c1ccc(F)cc1)N1CCN(C2=NC(=O)/C(=C/c3ccccc3)S2)CC1 (centres undefined) | 1.56 µg/mL and 3.08 µM | > 100 | > 100 | 3
CC(C)(C)n1nnnc1C(c1ccccc1Cl)N1CCN(C2=NC(=O)/C(=C/c3ccccc3)S2)CC1 (centres undefined) | 12.5 µg/mL and 23.9 µM | > 100 | > 100 | –
CC(C)(C)n1nnnc1C(c1ccc(Cl)cc1)N1CCN(C2=NC(=O)/C(=C/c3ccccc3)S2)CC1 (centres undefined) | 6.25 µg/mL and 11.9 µM | > 100 | > 100 | –
CC(C)c1ccc(C(c2nnnn2C(C)(C)C)N2CCN(C3=NC(=O)/C(=C/c4ccccc4)S3)CC2)cc1 (centres undefined) | > 12.5 µg/mL | > 100 | > 100 | –
COc1ccc(C(c2nnnn2C(C)(C)C)N2CCN(C3=NC(=O)/C(=C/c4ccccc4)S3)CC2)cc1 (centres undefined) | 1.56 µg/mL and 3.01 µM | > 100 | > 100 | 3
COc1ccc(C(c2nnnn2C(C)(C)C)N2CCN(C3=NC(=O)/C(=C/c4ccccc4)S3)CC2)cc1OC (centres undefined) | 6.25 µg/mL and 11.4 µM | > 100 | > 100 | –
COc1cc(C(c2nnnn2C(C)(C)C)N2CCN(C3=NC(=O)/C(=C/c4ccccc4)S3)CC2)cc(OC)c1OC (centres undefined) | 6.25 µg/mL and 10.8 µM | > 100 | > 100 | –
CC(C)(C)n1nnnc1C(c1ccncc1)N1CCN(C2=NC(=O)/C(=C/c3ccccc3)S2)CC1 (centres undefined) | 6.25 µg/mL and 12.8 µM | – | – | –
CC(C)(C)n1nnnc1C(c1cccnc1)N1CCN(C2=NC(=O)/C(=C/c3ccccc3)S2)CC1 (centres undefined) | 6.25 µg/mL and 12.8 µM | > 100 | > 100 | –
CC(C)(C)n1nnnc1C(c1ccoc1)N1CCN(C2=NC(=O)/C(=C/c3ccccc3)S2)CC1 (centres undefined) | 6.25 µg/mL and 13.1 µM | 45.9 | > 100 | –
O=C1N=C(N2CCN(C(c3ccccc3)c3nnnn3C3CCCCC3)CC2)S/C1=C\c1ccccc1 (centres undefined) | 6.25 µg/mL and 12.1 µM | > 100 | > 100 | –
O=C1N=C(N2CCN(C(c3ccccc3F)c3nnnn3C3CCCCC3)CC2)S/C1=C\c1ccccc1 (centres undefined) | 12.5 µg/mL (≈ 23.5 µM) | – | – | –
O=C1N=C(N2CCN(C(c3ccc(F)cc3)c3nnnn3C3CCCCC3)CC2)S/C1=C\c1ccccc1 (centres undefined) | 6.25 µg/mL and 11.7 µM | > 100 | > 100 | –
O=C1N=C(N2CCN(C(c3ccccc3Cl)c3nnnn3C3CCCCC3)CC2)S/C1=C\c1ccccc1 (centres undefined) | 6.25 µg/mL and 11.4 µM | > 100 | > 100 | –
O=C1N=C(N2CCN(C(c3ccc(Cl)cc3)c3nnnn3C3CCCCC3)CC2)S/C1=C\c1ccccc1 (centres undefined) | 12.5 µg/mL and 22.8 µM | – | – | –
CC(C)c1ccc(C(c2nnnn2C2CCCCC2)N2CCN(C3=NC(=O)/C(=C/c4ccccc4)S3)CC2)cc1 (centres undefined) | 6.25 µg/mL and 11.2 µM | > 100 | > 100 | –
COc1ccc(C(c2nnnn2C2CCCCC2)N2CCN(C3=NC(=O)/C(=C/c4ccccc4)S3)CC2)cc1 (centres undefined) | 6.25 µg/mL and 11.5 µM | – | – | –
COc1ccc(C(c2nnnn2C2CCCCC2)N2CCN(C3=NC(=O)/C(=C/c4ccccc4)S3)CC2)cc1OC (centres undefined) | 6.25 µg/mL and 10.9 µM | – | – | –
COc1cc(C(c2nnnn2C2CCCCC2)N2CCN(C3=NC(=O)/C(=C/c4ccccc4)S3)CC2)cc(OC)c1OC (centres undefined) | 6.25 µg/mL and 10.3 µM | > 100 | > 100 | –
O=C1N=C(N2CCN(C(c3ccncc3)c3nnnn3C3CCCCC3)CC2)S/C1=C\c1ccccc1 (centres undefined) | 6.25 µg/mL and 12.1 µM | – | – | –
O=C1N=C(N2CCN(C(c3cccnc3)c3nnnn3C3CCCCC3)CC2)S/C1=C\c1ccccc1 (centres undefined) | 6.25 µg/mL and 12.1 µM | – | – | –
O=C1N=C(N2CCN(C(c3ccoc3)c3nnnn3C3CCCCC3)CC2)S/C1=C\c1ccccc1 (centres undefined) | 6.25 µg/mL and 12.4 µM | – | – | –
CC[C@@H](CO)NCCN[C@@H](CC)CO [ETHAMBUTOL] | 2 µg/mL and 9.78 µM | – | – | –
NNC(=O)c1ccncc1 [ISONIAZID] | 0.02 µg/mL and 0.14 µM | – | – | –
NC(=O)c1cnccn1 [PYRAZINAMIDE] | 12.5 µg/mL and 102 µM | – | – | –

Reference: ChEMBL document CHEMBL3352403, “New class of methyl tetrazole based hybrid of (Z)-5-benzylidene-2-(piperazin-1-yl)thiazol-4(%H)-one as potent antitubercular agents” (Bioorg Med Chem Lett, 2014)
